Reference: ChEMBL document CHEMBL1201862, “PubChem BioAssay data set” (2004)
Calls of active or inactive are those of the source.

Legend:
[1] = molecular target: Peroxisome proliferator-activated receptor gamma/Nuclear receptor corepressor 2 (Homo sapiens, UniProt P37231+Q9Y618); assay type: functional
[2] = molecular target: Photoreceptor-specific nuclear receptor (Homo sapiens, UniProt Q9Y5X4); assay type: functional;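 also: potency for compounds that break the NR2E3 corepressor complex and count as activators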
INS1 = test: INS-1E survival protection against cytokine death – cell-based, luminescence, retest, dose response (AID 449756); assay type: functional; settings: Rattus norvegicus;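 also: cell death triggered by IL-1 beta plus TNF-alpha plus IFN-gamma mixture; protective hits raise ATP signal compared with cytokine alone wells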
Streptokinase A = molecular target: T1, Streptokinase A (Streptococcus pyogenes serotype M1, UniProt P10520); test: viability-normalized secreted streptokinase activity reduction – plasminogen activation absorbance, OD405, dose response (AID 1914); assay type: functional, Streptococcus pyogenes M1 GAS;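 also: secreted streptokinase activity via plasminogen activation per viability signal from cell pellet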
T1 sequence (P10520 whole entry): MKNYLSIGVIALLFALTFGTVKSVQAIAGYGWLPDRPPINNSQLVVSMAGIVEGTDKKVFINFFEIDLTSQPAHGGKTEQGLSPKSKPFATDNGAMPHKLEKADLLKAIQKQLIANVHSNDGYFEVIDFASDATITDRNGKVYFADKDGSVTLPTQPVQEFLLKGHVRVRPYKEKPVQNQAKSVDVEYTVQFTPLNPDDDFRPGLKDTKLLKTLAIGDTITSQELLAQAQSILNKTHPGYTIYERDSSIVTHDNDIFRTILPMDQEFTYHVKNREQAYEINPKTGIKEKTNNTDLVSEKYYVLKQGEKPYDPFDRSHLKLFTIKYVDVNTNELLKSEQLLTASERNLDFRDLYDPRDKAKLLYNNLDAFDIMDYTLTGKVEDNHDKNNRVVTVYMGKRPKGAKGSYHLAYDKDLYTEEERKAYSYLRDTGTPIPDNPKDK

Cryptococcus neoformans [3] = test: Cryptococcus growth inhibition by alamar blue – cell lysis, cherry-picks, replicate tests, mechanism study for C. neoformans antifungal project, dose response (AID 686999); assay type: functional, organism-based
HepG2 = test: viability loss in HepG2 hepatoma cells – cell-based, cherry-picks, set 2, cytotoxicity control, dose response (AID 687002); assay type: functional; settings: Homo sapiens
Bcl-2-related protein A1 = molecular target: T2, Bcl-2-related protein A1 (Mus musculus, UniProt Q07440); assay type: functional;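 also: confirmatory dose–response counterscreen on Bfl-1, used to check hits from a UBC13 polyubiquitin inhibitor campaign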
T2 sequence (Q07440 whole entry): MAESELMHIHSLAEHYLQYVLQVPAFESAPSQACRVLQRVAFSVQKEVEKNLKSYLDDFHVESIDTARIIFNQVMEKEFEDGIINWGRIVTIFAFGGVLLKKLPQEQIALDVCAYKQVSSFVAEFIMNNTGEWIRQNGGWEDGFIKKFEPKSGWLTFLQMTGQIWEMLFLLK

Cryptococcus neoformans [4] = test: PubChem AID 686997; assay type: functional, organism-based
Protein skinhead-1 = molecular target: T3, Protein skinhead-1 (Caenorhabditis elegans, UniProt P34707); assay type: functional
T3 sequence (P34707 whole entry): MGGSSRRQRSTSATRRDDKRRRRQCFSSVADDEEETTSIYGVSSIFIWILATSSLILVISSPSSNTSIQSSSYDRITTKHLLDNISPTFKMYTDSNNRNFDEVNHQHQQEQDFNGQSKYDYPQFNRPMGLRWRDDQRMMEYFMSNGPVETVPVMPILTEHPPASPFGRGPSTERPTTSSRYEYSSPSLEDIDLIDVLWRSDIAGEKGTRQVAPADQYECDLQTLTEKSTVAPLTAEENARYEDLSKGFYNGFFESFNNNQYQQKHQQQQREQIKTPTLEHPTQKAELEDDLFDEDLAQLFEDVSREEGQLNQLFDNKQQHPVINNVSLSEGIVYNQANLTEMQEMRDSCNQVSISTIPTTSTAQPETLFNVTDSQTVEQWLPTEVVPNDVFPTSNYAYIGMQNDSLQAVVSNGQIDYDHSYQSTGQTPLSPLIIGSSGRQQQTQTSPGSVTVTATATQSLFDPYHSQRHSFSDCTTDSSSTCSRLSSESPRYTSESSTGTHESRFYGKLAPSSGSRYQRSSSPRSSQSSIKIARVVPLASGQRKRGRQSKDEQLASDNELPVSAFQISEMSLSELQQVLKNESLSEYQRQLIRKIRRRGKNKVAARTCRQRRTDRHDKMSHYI

[5] = viability loss in THP-1 monocytes – THP-1 cells, cytotoxicity control for Vif-APOBEC3G degradation inhibitor project, dose response (AID 1117359); assay type: functional; settings: THP-1
Troponin, cardiac muscle = Troponin, cardiac muscle (Homo sapiens, UniProt P19429+P45379+P63316); test: compounds desensitizing RTF to calcium – biochemical, fluorescence, cardiac regulated thin filaments, triplicate IC50, dose response (AID 504742); assay type: protein-complex assay
Large T antigen = Large T antigen (Simian virus 40, UniProt P03070); assay type: functional, Betapolyomavirus macacae;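 also: Confirmatory-stage PubChem screen for compounds that inhibit SV40 T antigen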
Genome polyprotein = Genome polyprotein (dengue virus type 2, UniProt P29990); test: flavivirus cap methylation enzyme inhibition – biochemical, confirmation dose response, primary screen (AID 588689); assay type: functional
Genome polyprotein, sequence (P29990 2492-3391 limits assumed): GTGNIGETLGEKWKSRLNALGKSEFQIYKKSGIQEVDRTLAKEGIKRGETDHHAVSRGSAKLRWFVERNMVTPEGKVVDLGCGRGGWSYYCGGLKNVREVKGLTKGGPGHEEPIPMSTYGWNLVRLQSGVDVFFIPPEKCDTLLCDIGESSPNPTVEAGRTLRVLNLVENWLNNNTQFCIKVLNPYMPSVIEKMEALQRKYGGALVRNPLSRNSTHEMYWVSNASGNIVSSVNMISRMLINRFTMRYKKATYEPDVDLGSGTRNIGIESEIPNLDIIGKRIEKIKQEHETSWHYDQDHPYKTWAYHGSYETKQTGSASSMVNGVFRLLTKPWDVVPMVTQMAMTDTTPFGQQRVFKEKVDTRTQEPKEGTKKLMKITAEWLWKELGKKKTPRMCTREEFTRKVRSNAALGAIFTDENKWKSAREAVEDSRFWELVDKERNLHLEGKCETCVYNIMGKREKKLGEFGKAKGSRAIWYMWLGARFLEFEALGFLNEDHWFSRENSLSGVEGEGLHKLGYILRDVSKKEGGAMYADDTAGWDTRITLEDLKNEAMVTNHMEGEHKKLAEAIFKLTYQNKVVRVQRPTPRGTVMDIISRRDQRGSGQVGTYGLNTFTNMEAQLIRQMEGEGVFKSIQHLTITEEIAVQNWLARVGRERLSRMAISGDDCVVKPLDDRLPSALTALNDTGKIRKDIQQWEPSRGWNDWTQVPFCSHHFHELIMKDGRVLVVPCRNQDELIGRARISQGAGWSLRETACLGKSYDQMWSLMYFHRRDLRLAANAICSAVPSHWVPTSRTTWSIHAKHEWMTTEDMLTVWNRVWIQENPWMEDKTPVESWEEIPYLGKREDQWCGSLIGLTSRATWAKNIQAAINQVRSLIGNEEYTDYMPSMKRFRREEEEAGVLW

Photoreceptor-specific nuclear receptor, sequence (Q9Y5X4 whole entry): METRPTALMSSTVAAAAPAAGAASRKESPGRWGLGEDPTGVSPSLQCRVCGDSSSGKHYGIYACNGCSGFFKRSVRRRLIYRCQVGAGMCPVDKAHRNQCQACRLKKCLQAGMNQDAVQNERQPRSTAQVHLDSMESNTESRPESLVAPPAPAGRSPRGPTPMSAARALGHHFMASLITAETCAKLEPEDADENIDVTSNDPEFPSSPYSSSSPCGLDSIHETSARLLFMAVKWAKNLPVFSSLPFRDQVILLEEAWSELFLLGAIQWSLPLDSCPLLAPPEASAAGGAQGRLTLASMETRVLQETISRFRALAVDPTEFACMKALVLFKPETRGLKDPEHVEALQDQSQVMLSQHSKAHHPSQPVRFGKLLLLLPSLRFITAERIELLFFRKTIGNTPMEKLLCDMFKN
Large T antigen, sequence (P03070 whole entry): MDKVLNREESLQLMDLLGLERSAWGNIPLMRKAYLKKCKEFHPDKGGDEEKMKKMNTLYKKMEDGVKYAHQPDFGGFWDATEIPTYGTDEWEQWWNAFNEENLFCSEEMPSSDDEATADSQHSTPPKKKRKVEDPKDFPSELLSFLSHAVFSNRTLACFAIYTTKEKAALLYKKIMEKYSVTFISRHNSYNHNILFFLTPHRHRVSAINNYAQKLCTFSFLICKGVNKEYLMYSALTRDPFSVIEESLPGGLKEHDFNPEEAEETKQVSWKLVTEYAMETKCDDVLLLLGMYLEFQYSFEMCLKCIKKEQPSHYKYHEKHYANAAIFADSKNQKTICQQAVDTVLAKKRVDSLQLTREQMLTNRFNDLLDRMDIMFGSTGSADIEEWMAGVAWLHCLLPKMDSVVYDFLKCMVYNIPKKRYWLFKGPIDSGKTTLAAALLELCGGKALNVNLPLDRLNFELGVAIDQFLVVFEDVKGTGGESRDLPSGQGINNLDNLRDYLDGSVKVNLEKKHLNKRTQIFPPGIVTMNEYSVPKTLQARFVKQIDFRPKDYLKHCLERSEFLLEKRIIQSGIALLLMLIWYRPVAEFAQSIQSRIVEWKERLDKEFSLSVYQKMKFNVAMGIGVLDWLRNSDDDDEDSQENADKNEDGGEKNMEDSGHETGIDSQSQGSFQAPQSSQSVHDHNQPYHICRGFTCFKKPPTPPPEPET
Peroxisome proliferator-activated receptor gamma/Nuclear receptor corepressor 2, sequence (P37231 whole entry): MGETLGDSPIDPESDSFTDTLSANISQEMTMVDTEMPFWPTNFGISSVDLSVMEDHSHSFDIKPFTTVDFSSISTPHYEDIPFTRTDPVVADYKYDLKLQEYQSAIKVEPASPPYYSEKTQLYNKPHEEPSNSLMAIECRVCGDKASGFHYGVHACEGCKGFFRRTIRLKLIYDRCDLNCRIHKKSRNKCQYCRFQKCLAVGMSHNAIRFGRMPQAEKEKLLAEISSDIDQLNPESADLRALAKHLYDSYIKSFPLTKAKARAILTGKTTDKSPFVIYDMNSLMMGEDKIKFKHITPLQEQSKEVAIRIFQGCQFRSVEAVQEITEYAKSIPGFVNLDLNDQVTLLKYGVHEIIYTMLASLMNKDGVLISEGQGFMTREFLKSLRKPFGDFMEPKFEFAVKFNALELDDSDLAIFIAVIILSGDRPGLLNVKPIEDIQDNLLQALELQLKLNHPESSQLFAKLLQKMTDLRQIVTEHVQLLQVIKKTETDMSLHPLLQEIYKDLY
Peroxisome proliferator-activated receptor gamma/Nuclear receptor corepressor 2, sequence (Q9Y618 whole entry): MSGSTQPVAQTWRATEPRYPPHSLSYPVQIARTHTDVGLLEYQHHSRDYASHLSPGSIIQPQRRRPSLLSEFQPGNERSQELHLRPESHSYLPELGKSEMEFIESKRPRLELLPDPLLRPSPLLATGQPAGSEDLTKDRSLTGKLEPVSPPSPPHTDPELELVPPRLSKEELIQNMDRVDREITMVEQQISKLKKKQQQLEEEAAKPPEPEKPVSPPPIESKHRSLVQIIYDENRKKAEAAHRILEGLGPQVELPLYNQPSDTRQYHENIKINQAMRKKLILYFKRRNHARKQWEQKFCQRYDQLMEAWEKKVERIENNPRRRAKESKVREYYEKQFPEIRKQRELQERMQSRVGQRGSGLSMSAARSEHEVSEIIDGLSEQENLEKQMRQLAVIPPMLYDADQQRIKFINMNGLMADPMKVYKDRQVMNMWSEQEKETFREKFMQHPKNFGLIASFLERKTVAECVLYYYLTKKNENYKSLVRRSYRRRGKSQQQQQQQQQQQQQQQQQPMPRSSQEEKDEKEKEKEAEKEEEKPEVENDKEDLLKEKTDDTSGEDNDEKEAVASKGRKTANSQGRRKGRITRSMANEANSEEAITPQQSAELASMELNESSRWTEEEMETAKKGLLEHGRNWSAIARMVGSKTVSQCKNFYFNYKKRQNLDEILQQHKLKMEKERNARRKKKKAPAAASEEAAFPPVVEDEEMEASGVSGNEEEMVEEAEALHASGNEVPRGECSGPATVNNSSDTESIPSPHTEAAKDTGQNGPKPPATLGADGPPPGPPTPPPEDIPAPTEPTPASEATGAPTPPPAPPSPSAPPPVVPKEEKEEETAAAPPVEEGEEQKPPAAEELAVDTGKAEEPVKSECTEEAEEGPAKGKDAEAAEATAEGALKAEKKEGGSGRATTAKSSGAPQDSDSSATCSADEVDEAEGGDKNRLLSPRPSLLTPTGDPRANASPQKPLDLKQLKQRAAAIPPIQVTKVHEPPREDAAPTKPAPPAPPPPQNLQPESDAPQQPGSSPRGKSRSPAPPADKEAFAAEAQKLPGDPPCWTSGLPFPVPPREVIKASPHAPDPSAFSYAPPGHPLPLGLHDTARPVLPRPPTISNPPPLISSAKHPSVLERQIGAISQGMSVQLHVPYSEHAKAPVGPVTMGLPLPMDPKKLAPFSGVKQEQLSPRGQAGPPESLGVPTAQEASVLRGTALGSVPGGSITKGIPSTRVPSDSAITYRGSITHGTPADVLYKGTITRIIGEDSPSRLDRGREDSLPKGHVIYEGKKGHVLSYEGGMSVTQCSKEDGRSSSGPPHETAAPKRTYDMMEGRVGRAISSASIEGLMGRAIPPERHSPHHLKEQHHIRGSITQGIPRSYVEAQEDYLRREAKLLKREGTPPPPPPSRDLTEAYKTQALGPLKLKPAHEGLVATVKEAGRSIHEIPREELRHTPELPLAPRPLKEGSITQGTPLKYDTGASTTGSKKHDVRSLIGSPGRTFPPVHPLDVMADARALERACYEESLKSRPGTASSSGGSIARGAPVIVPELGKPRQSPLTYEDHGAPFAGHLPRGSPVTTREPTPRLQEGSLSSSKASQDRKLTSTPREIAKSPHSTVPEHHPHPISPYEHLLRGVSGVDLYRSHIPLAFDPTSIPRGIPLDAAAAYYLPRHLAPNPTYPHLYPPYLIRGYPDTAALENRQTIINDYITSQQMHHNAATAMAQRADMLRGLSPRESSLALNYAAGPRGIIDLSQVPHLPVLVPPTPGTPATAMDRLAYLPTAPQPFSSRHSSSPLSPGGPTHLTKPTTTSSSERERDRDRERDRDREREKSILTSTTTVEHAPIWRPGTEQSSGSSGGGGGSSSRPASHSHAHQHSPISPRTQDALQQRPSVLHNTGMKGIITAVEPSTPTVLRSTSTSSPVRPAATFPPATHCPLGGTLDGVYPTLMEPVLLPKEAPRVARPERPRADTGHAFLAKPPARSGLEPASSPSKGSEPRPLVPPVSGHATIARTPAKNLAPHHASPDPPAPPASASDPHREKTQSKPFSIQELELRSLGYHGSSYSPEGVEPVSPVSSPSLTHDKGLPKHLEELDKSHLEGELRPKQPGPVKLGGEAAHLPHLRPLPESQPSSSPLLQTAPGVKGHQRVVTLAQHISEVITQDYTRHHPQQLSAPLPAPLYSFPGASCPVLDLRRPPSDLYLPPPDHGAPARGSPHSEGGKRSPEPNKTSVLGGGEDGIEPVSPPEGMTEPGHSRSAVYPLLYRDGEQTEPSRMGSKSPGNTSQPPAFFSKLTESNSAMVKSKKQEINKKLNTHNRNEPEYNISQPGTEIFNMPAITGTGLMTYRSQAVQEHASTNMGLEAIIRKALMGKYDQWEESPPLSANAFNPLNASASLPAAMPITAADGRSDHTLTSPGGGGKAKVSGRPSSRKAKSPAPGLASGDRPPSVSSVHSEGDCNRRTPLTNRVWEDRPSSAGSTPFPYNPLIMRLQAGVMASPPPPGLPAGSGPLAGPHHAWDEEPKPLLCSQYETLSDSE

N#Cc1c(NC(=O)c2ccc(Br)o2)n(-c2ccccc2)c2nc3ccccc3nc12
IC50 [1]: 5.08 µM (active) | IC50 [2]: > 39.8 µM (not active)

CCCCCCCCCCOC(=O)Cn1c(COc2ccccc2)[n+](C)c2ccccc21
AC50 (INS1): 3.72 µM (active) | EC50 (Streptokinase A): > 150 µM (not active)

CCOC(=O)c1c(-c2ccc(-c3ccccc3)cc2)csc1NC(=O)CNCCN(C)C
AC50 (Cryptococcus neoformans [3]): 14.7 µM (active) | AC50 (HepG2): 18.4 µM (active) | IC50 (Bcl-2-related protein A1): > 20 µM (inactive) | AC50 (Cryptococcus neoformans [4]): 20.9 µM (active) | IC50 (Protein skinhead-1): 12.5 µM (active)

COc1cc(-c2nnc(SCc3cc(=O)oc4cc(O)c(O)cc34)o2)cc(OC)c1OC
CC50 [5]: > 40 µM (active) | IC50 (Troponin, cardiac muscle): > 2.65 µM (active) | IC50 (Large T antigen): 2.8 µM (active) | IC50 (Genome polyprotein): > 100 µM (active)
